Source: the NIST ThermoML archive (doi:10.1021/je500792x)
Numbers after ± are expanded uncertainties.

Assay: xn = mol fraction of the nth substance listed
Conditions: Gas, Buoyancy - hydrostatic balance with magnetic suspension - two sinkers

C [methane] + CCC
Conditions | mass density [kg/m3]
293.15 K, 1153.9 kPa, x1 = 0.2658 | 20.3554 ± 0.0076
293.15 K, 1175 kPa, x1 = 0.2658 | 20.8043 ± 0.0077
293.15 K, 1187.5 kPa, x1 = 0.2658 | 21.0718 ± 0.0077
293.15 K, 1209.4 kPa, x1 = 0.5069 | 16.361 ± 0.01
293.15 K, 1399.6 kPa, x1 = 0.5069 | 19.2777 ± 0.011
293.15 K, 1605.8 kPa, x1 = 0.5069 | 22.5759 ± 0.014
298.14 K, 160.58 kPa, x1 = 0.2658 | 2.414 ± 0.0033
298.15 K, 311.48 kPa, x1 = 0.2658 | 4.7646 ± 0.0036
298.15 K, 471.27 kPa, x1 = 0.2658 | 7.3487 ± 0.0038
298.15 K, 493.82 kPa, x1 = 0.7498 | 4.6835 ± 0.004
298.15 K, 500.2 kPa, x1 = 0.7498 | 4.742 ± 0.004
298.15 K, 605.41 kPa, x1 = 0.2658 | 9.6013 ± 0.0045
298.15 K, 758.38 kPa, x1 = 0.2658 | 12.2732 ± 0.0053
298.15 K, 785.06 kPa, x1 = 0.7498 | 7.5358 ± 0.0043
298.15 K, 909.2 kPa, x1 = 0.2658 | 15.0282 ± 0.0061
298.15 K, 999.01 kPa, x1 = 0.7498 | 9.679 ± 0.0051
298.15 K, 1000.6 kPa, x1 = 0.7498 | 9.6924 ± 0.0051
298.15 K, 1055.1 kPa, x1 = 0.2658 | 17.8236 ± 0.0065
298.15 K, 1094 kPa, x1 = 0.7498 | 10.6384 ± 0.0051
298.15 K, 1201.2 kPa, x1 = 0.2658 | 20.7664 ± 0.0076
298.15 K, 1355.7 kPa, x1 = 0.2658 | 24.0659 ± 0.0087
298.15 K, 1372.4 kPa, x1 = 0.7498 | 13.507 ± 0.0067
298.15 K, 1686.6 kPa, x1 = 0.7498 | 16.8301 ± 0.0078
298.15 K, 1999.5 kPa, x1 = 0.7498 | 20.2389 ± 0.0083
298.15 K, 2001.4 kPa, x1 = 0.7498 | 20.2558 ± 0.0083
298.15 K, 2075.4 kPa, x1 = 0.7498 | 21.0754 ± 0.0083
298.15 K, 3006.3 kPa, x1 = 0.7498 | 31.9148 ± 0.01
298.15 K, 3043.9 kPa, x1 = 0.7498 | 32.3714 ± 0.01
298.15 K, 3990.5 kPa, x1 = 0.7498 | 44.5527 ± 0.013
298.15 K, 4003.1 kPa, x1 = 0.7498 | 44.7224 ± 0.013
298.15 K, 4119.5 kPa, x1 = 0.7498 | 46.3151 ± 0.013
298.15 K, 4424.2 kPa, x1 = 0.7498 | 50.5647 ± 0.015
298.15 K, 4993.9 kPa, x1 = 0.7498 | 58.9113 ± 0.0099
298.15 K, 5997.5 kPa, x1 = 0.7498 | 74.9816 ± 0.012
298.15 K, 5999.6 kPa, x1 = 0.7498 | 75.0173 ± 0.012
323.16 K, 434.83 kPa, x1 = 0.5069 | 4.9489 ± 0.0045
323.16 K, 609.43 kPa, x1 = 0.5069 | 7.005 ± 0.0053
323.16 K, 747.99 kPa, x1 = 0.7498 | 6.5657 ± 0.004
323.16 K, 981.92 kPa, x1 = 0.7498 | 8.6824 ± 0.0046
323.16 K, 1028.4 kPa, x1 = 0.5069 | 12.1152 ± 0.0075
323.16 K, 1206.2 kPa, x1 = 0.5069 | 14.365 ± 0.0088
323.16 K, 1225.9 kPa, x1 = 0.7498 | 10.9233 ± 0.0053
323.16 K, 1407.1 kPa, x1 = 0.5069 | 16.9693 ± 0.01
323.16 K, 1492.3 kPa, x1 = 0.7498 | 13.4094 ± 0.006
323.16 K, 1603.4 kPa, x1 = 0.5069 | 19.5802 ± 0.01
323.16 K, 1721 kPa, x1 = 0.7498 | 15.578 ± 0.0074
323.16 K, 1804.7 kPa, x1 = 0.5069 | 22.3318 ± 0.013
323.16 K, 1913.8 kPa, x1 = 0.5069 | 23.855 ± 0.015
323.16 K, 1988.8 kPa, x1 = 0.7498 | 18.1586 ± 0.0079
323.16 K, 3017.7 kPa, x1 = 0.7498 | 28.51 ± 0.0089
323.16 K, 4475.4 kPa, x1 = 0.7498 | 44.4692 ± 0.011
323.16 K, 5928.8 kPa, x1 = 0.7498 | 62.0416 ± 0.01
323.17 K, 161.42 kPa, x1 = 0.2658 | 2.2297 ± 0.003
323.17 K, 240.14 kPa, x1 = 0.5069 | 2.7038 ± 0.0032
323.17 K, 277.8 kPa, x1 = 0.2658 | 3.8766 ± 0.0033
323.17 K, 380.81 kPa, x1 = 0.2658 | 5.3632 ± 0.0036
323.17 K, 474.08 kPa, x1 = 0.2658 | 6.7339 ± 0.0037
323.17 K, 556.87 kPa, x1 = 0.2658 | 7.9706 ± 0.0041
323.17 K, 653.58 kPa, x1 = 0.2658 | 9.4407 ± 0.0043
